Results reported in patent US11135211B2, “Pimavanserin for treating impulse control disorder” (ACADIA Pharmaceuticals Inc., priority 2017, dated 2021).

Tests used:
[1] = tested on: rats with 6-hydroxydopamine (6OHDA)-induced lesions of the dorsolateral striatum (DLS); test: ICSS-mediated probability discounting (risk-taking) in rat model of PD; assay type: in vivo; conditions: co-administration with pramipexole
Source text: Impulsiveness includes a greater tendency for risk-taking. This tendency can be quantified using probability discounting procedures; a cross-species assessment in which the subject chooses between a small reinforcer (SR) delivered at a high probability, and a large reinforcer (LR) delivered at a low probability. Typically, the subjective value of the LR is discounted when its probability is low, and individuals then select the smaller, yet more certain reinforcer. Those who suffer from ICD are less sensitive to low probabilities than healthy individuals, and they more frequently select the LR even when the odds to obtain the reward are very low (Hendrickson, et al., Effects of mindful eating training on delay and probability discounting for food and money in obese and healthy-weight individuals. Behav. Res. Ther. 51, 399-409, 2013). […]
Rats then will be trained for ICSS followed by probability discounting. […] Pramipexole will be infused for 14 days (optionally a similar time period may be used), during which probability discounting will be assessed each day. Forelimb akinesia will be evaluated before lesion, after lesion, and at various time points during pramipexole administration. […]

6-OHDA lesioned rats = test: Forelimb step task (forelimb akinesia) in 6-OHDA lesioned rats; assay type: in vivo; conditions: co-administration with pramipexole
Experimental: Male Sprague-Dawley (outbred) rats (250-300 g; Harlan Laboratories, Indianapolis, Ind.) are to be pair-housed under environmentally controlled conditions under a 12 h light/dark cycle (lights on at 07:00); food and water are to be available ad libitum.
6-OHDA lesions will be carried out at described previously (Napier et al., Pramipexole-induced increased probabilistic discounting: comparison between a rodent model of Parkinson's disease and controls. Neuropsychopharmacology 37, 1397-1408, 2012). Prior to inducing lesions, desipramine (obtained from Sigma-Aldrich), a norepinephrine reuptake inhibitor, will be administered (25 mg/kg subcutaneously (sc)) to enhance selectivity of 6OHDA for dopamine neurons. Rats were anesthetized with isoflurane and secured in a stereotaxic frame. […]
Rats then will be trained for ICSS followed by probability discounting. […] Pramipexole will be infused for 14 days (optionally a similar time period may be used), during which probability discounting will be assessed each day. Forelimb akinesia will be evaluated before lesion, after lesion, and at various time points during pramipexole administration. […] Probability discounting will be assessed each day of chronic drug treatment; forelimb akinesia will be evaluated before lesion, after lesion, and at various time points during chronic drug administration.

PD patients = conditions: cited from earlier work
[2] = tested on: lean, female, Wistar rats; test: Binge-eating on chocolate in rats (BED model); assay type: in vivo
Source text: Carbohydrate and fat ‘comfort foods’, with bingeing on chocolate are known to be associated with eating disorders in humans and in rodents.
BED is, for example, to be studied using lean, female, Wistar rats (weight range 200-250 g at the start of the study) from Charles River, UK. Rats are to be contained in a controlled environment and housed in an appropriate way to perform the study, for example singly-housed in polypropylene cages with wire grid floors to enable food intake of each rat to be recorded. […]
Body weight, food and water intake are to be measured each day throughout the study, for example as described in the following: Animals are to be weighed at weekly intervals after arrival. […] The weights of the jars are to be recorded before and after the 2 h test session. […] The body weight of each rat and its food and water intake are to be measured on every morning of the study; readings are to be taken in the final stage of the light phase at ˜09:45 h. […]
During the training period, an extra food jar (along with the jar containing normal chow) containing chocolate are to be added to the cage for 2 hr/day intermittently, for at least three weeks, using the access schedule above. […] The chocolate and chow consumed during this 2 h period are to be measured. […]

CC(C)COc1ccc(CNC(=O)N(Cc2ccc(F)cc2)C2CCN(C)CC2)cc1 [pimavanserin, N-(1-methylpiperidin-4-yl)-N-(4-fluorophenylmethyl)-N′-(4-(2-methylpropyloxy)phenylmethyl)carbamide]
risk taking behavior in rats receiving pramipexole (proportion of rats selecting LR) [1]: reduced risk taking behavior | motor function in rats receiving pramipexole (6-OHDA lesioned rats): did not alter motor function | hallucinations and delusions associated with PD (PD patients): control hallucinations and delusions | motor function in PD patients (PD patients): without impacting motor function | consumption of standard laboratory diet during the 2 h binge-eating session ([2]; compared to vehicle treated control): no effect | consumption of palatable food (chocolate) in 2 h binge-eating session ([2]; pimavanserin 0.1, 0.5, 1.0, 3.0, 6.0, 10.0 mg/kg po 60 min prior to session): decrease the consumption
